Converted amounts (≈) assume the structure as drawn.
How the values were obtained:
Assay type in all cases: functional, Salmonella enterica subsp. enterica serovar Typhi
[1] = tested on: Salmonella enterica subsp. enterica; test: Antimicrobial activity against Salmonella enterica Serovar Typhi isolate AG169 harboring DNA gyrase A S83F mutation by disk diffusion method
[2] = tested on: Salmonella enterica subsp. enterica; test: Antimicrobial activity against multidrug-resistant Salmonella enterica Serovar Typhi isolate nar 51 harboring DNA gyrase A S83F mutation by disk diffusion method
[3] = tested on: Salmonella enterica subsp. enterica; test: Antimicrobial activity against multidrug-resistant Salmonella enterica Serovar Typhi isolate B111 harboring DNA gyrase A S83Y mutation by disk diffusion method in presence of plasmid mediated quinolone-resistant gene qnrA and qnrS
[4] = tested on: Salmonella enterica subsp. enterica; test: Antimicrobial activity against multidrug-resistant Salmonella enterica Serovar Typhi isolate AG8 harboring DNA gyrase A S83F mutation by disk diffusion method
[5] = tested on: Salmonella enterica subsp. enterica; test: Antimicrobial activity against multidrug-resistant Salmonella enterica Serovar Typhi isolate nar 46 harboring DNA gyrase A D87G mutation by disk diffusion method
[6] = tested on: Salmonella enterica subsp. enterica; test: Antimicrobial activity against multidrug-resistant Salmonella enterica Serovar Typhi isolate AG168 harboring DNA gyrase A S83F mutation by disk diffusion method
[7] = tested on: Salmonella enterica subsp. enterica; test: Antimicrobial activity against Salmonella enterica Serovar Typhi isolate CT144 harboring DNA gyrase A D87G mutation by disk diffusion method in presence of plasmid mediated quinolone-resistant gene qnrA and qnrS
[8] = tested on: Salmonella enterica subsp. enterica; test: Antimicrobial activity against multidrug-resistant Salmonella enterica Serovar Typhi isolate CT29 harboring DNA gyrase A S83F mutation by disk diffusion method in presence of plasmid mediated quinolone-resistant gene qnrA and qnrS
[9] = tested on: Salmonella enterica subsp. enterica; test: Antimicrobial activity against multidrug-resistant Salmonella enterica Serovar Typhi isolate AG152 harboring DNA gyrase A S83F and D87G mutation by disk diffusion method in presence of plasmid mediated quinolone-resistant gene qnrA and qnrS
[10] = tested on: Salmonella enterica subsp. enterica; test: Antimicrobial activity against Salmonella enterica Serovar Typhi isolate E86 harboring DNA gyrase A S83F mutation by disk diffusion method in presence of plasmid mediated quinolone-resistant gene qnrA and qnrS
[11] = tested on: Salmonella enterica subsp. enterica; test: Antimicrobial activity against multidrug-resistant Salmonella enterica Serovar Typhi isolate AG176 harboring DNA gyrase A S83F mutation by disk diffusion method
[12] = tested on: Salmonella enterica subsp. enterica; test: Antimicrobial activity against multidrug-resistant Salmonella enterica Serovar Typhi isolate nar 107 harboring DNA gyrase A S83F mutation by disk diffusion method in presence of plasmid mediated quinolone-resistant gene qnrA and qnrS
[13] = tested on: Salmonella enterica subsp. enterica; test: Antimicrobial activity against multidrug-resistant Salmonella enterica Serovar Typhi isolate DT15 harboring DNA gyrase A S83F mutation by disk diffusion method
[14] = tested on: Salmonella enterica subsp. enterica; test: Antimicrobial activity against Salmonella enterica Serovar Typhi isolate CT145 harboring DNA gyrase A S83F mutation by disk diffusion method in presence of plasmid mediated quinolone-resistant gene qnrA and qnrS
[15] = tested on: Salmonella enterica subsp. enterica; test: Antimicrobial activity against Salmonella enterica Serovar Typhi isolate ipt 2 harboring DNA gyrase A D87G mutation by disk diffusion method in presence of plasmid mediated quinolone-resistant gene qnrA and qnrS
[16] = tested on: Salmonella enterica subsp. enterica; test: Antimicrobial activity against multidrug-resistant Salmonella enterica Serovar Typhi isolate nar 45 harboring DNA gyrase A S83F mutation by disk diffusion method
[17] = tested on: Salmonella enterica subsp. enterica; test: Antimicrobial activity against multidrug-resistant Salmonella enterica Serovar Typhi isolate AG16 harboring DNA gyrase A S83F mutation by disk diffusion method
[18] = tested on: Salmonella enterica subsp. enterica; test: Antimicrobial activity against multidrug-resistant Salmonella enterica Serovar Typhi isolate DT18 harboring DNA gyrase A S83F and D87G mutation by disk diffusion method
[19] = tested on: Salmonella enterica subsp. enterica; test: Antimicrobial activity against Salmonella enterica Serovar Typhi isolate AG182 harboring DNA gyrase A S83F mutation by disk diffusion method
[20] = tested on: Salmonella enterica subsp. enterica; test: Antimicrobial activity against multidrug-resistant Salmonella enterica Serovar Typhi isolate CT118 harboring DNA gyrase A S83F mutation by disk diffusion method in presence of plasmid mediated quinolone-resistant gene qnrA and qnrS
[21] = tested on: Salmonella enterica subsp. enterica; test: Antimicrobial activity against multidrug-resistant Salmonella enterica Serovar Typhi isolate DT47 harboring DNA gyrase A S83F mutation by disk diffusion method in presence of plasmid mediated quinolone-resistant gene qnrA and qnrS
[22] = tested on: Salmonella enterica subsp. enterica; test: Antimicrobial activity against multidrug-resistant Salmonella enterica Serovar Typhi isolate HTD 798 harboring DNA gyrase A S83F mutation by disk diffusion method
[23] = tested on: Salmonella enterica subsp. enterica; test: Antimicrobial activity against multidrug-resistant Salmonella enterica Serovar Typhi isolate nar 50 harboring DNA gyrase A S83F mutation by disk diffusion method
[24] = tested on: Salmonella enterica subsp. enterica; test: Antimicrobial activity against multidrug-resistant Salmonella enterica Serovar Typhi isolate AG6 harboring DNA gyrase A S83F mutation by disk diffusion method
[25] = tested on: Salmonella enterica subsp. enterica; test: Antimicrobial activity against Salmonella enterica Serovar Typhi isolate BL 21801 harboring DNA gyrase A S83F mutation by disk diffusion method in presence of plasmid mediated quinolone-resistant gene qnrA and qnrS
[26] = tested on: Salmonella enterica subsp. enterica; test: Antimicrobial activity against multidrug-resistant Salmonella enterica Serovar Typhi isolate AG17 harboring DNA gyrase A S83F mutation by disk diffusion method
[27] = tested on: Salmonella enterica subsp. enterica; test: Antimicrobial activity against Salmonella enterica Serovar Typhi isolate C152 harboring DNA gyrase A S83Y mutation by disk diffusion method in presence of plasmid mediated quinolone-resistant gene qnrA and qnrS
[28] = tested on: Salmonella enterica subsp. enterica; test: Antimicrobial activity against Salmonella enterica Serovar Typhi isolate AG259 harboring DNA gyrase A S83F mutation by disk diffusion method in presence of plasmid mediated quinolone-resistant gene qnrA and qnrS
[29] = tested on: Salmonella enterica subsp. enterica; test: Antimicrobial activity against multidrug-resistant Salmonella enterica Serovar Typhi isolate AG5 harboring DNA gyrase A S83F mutation by disk diffusion method
[30] = tested on: Salmonella enterica subsp. enterica; test: Antimicrobial activity against multidrug-resistant Salmonella enterica Serovar Typhi isolate DT37 harboring DNA gyrase A S83F mutation by disk diffusion method
[31] = tested on: Salmonella enterica subsp. enterica; test: Antimicrobial activity against multidrug-resistant Salmonella enterica Serovar Typhi isolate DT2 harboring DNA gyrase A S83F mutation by disk diffusion method in presence of plasmid mediated quinolone-resistant gene qnrA and qnrS
[32] = tested on: Salmonella enterica subsp. enterica; test: Antimicrobial activity against Salmonella enterica Serovar Typhi isolate D43 harboring DNA gyrase A S83Y mutation by disk diffusion method in presence of plasmid mediated quinolone-resistant gene qnrA and qnrS
[33] = tested on: Salmonella enterica subsp. enterica; test: Antimicrobial activity against multidrug-resistant Salmonella enterica Serovar Typhi isolate BL 21095 harboring DNA gyrase A S83F mutation by disk diffusion method in presence of plasmid mediated quinolone-resistant gene qnrA and qnrS
[34] = tested on: Salmonella enterica subsp. enterica; test: Antimicrobial activity against multidrug-resistant Salmonella enterica Serovar Typhi isolate DT3 harboring DNA gyrase A S83F mutation by disk diffusion method in presence of plasmid mediated quinolone-resistant gene qnrA and qnrS
[35] = tested on: Salmonella enterica subsp. enterica; test: Antimicrobial activity against multidrug-resistant Salmonella enterica Serovar Typhi isolate A102 harboring DNA gyrase A S83Y mutation by disk diffusion method in presence of plasmid mediated quinolone-resistant gene qnrA and qnrS
[36] = tested on: Salmonella enterica subsp. enterica; test: Antimicrobial activity against multidrug-resistant Salmonella enterica Serovar Typhi isolate nar 104 harboring DNA gyrase A S83F mutation by disk diffusion method in presence of plasmid mediated quinolone-resistant gene qnrA and qnrS
[37] = tested on: Salmonella enterica subsp. enterica; test: Antimicrobial activity against Salmonella enterica Serovar Typhi isolate CT142 harboring DNA gyrase A S83F mutation by disk diffusion method in presence of plasmid mediated quinolone-resistant gene qnrA and qnrS
[38] = tested on: Salmonella enterica subsp. enterica; test: Antimicrobial activity against multidrug-resistant Salmonella enterica Serovar Typhi isolate ipt 33 harboring DNA gyrase A S83F mutation by disk diffusion method
[39] = tested on: Salmonella enterica subsp. enterica; test: Antimicrobial activity against multidrug-resistant Salmonella enterica Serovar Typhi isolate AG15 harboring DNA gyrase A S83F mutation by disk diffusion method

Compound	MIC [1] [µg/mL]	MIC [2] [µg/mL]	MIC [3] [µg/mL]	MIC [4] [µg/mL]	MIC [5] [µg/mL]	MIC [6] [µg/mL]	MIC [7] [µg/mL]	MIC [8] [µg/mL]	MIC [9] [µg/mL]	MIC [10] [µg/mL]	MIC [11] [µg/mL]	MIC [12] [µg/mL]	MIC [13] [µg/mL]	MIC [14] [µg/mL]	MIC [15] [µg/mL]	MIC [16] [µg/mL]	MIC [17] [µg/mL]	MIC [18] [µg/mL]	MIC [19] [µg/mL]	MIC [20] [µg/mL]	also measured
CCn1cc(C(=O)O)c(=O)c2ccc(C)nc21 [NALIDIXIC ACID]	> 256	256 (≈ 1100 µM)	> 256	> 256	64 (≈ 276 µM)	> 256	> 256	256	> 256	> 256	> 256	256	> 256	128	256	256 (≈ 1100 µM)	> 256	> 256	> 256	> 256	MIC [21]: 128 µg/mL; MIC [22]: > 256 µg/mL; MIC [23]: 256 µg/mL (≈ 1100 µM); MIC [24]: > 256 µg/mL; MIC [25]: > 256 µg/mL; MIC [26]: > 256 µg/mL; MIC [27]: > 256 µg/mL; MIC [28]: > 256 µg/mL; MIC [29]: > 256 µg/mL; MIC [30]: > 256 µg/mL; MIC [31]: > 256 µg/mL; MIC [32]: > 256 µg/mL; MIC [33]: > 256 µg/mL; MIC [34]: > 256 µg/mL; MIC [35]: > 256 µg/mL; MIC [36]: 256 µg/mL; MIC [37]: > 256 µg/mL; MIC [38]: 256 µg/mL (≈ 1100 µM); MIC [39]: > 256 µg/mL
CC1COc2c(N3CCN(C)CC3)c(F)cc3c(=O)c(C(=O)O)cn1c23 (stereo not drawn) [OFLOXACIN]	1 (≈ 2.77 µM)	1 (≈ 2.77 µM)	0.5	1.5 (≈ 4.15 µM)	0.5 (≈ 1.38 µM)	1 (≈ 2.77 µM)	1	1	3	0.5	0.75 (≈ 2.08 µM)	1	1 (≈ 2.77 µM)	0.5	2	0.5 (≈ 1.38 µM)	1.5 (≈ 4.15 µM)	2 (≈ 5.53 µM)	1 (≈ 2.77 µM)	1	MIC [21]: 1 µg/mL; MIC [22]: 1 µg/mL (≈ 2.77 µM); MIC [23]: 1 µg/mL (≈ 2.77 µM); MIC [24]: 1 µg/mL (≈ 2.77 µM); MIC [25]: 0.5 µg/mL; MIC [26]: 1.5 µg/mL (≈ 4.15 µM); MIC [27]: 0.5 µg/mL; MIC [28]: 1.5 µg/mL; MIC [29]: 1 µg/mL (≈ 2.77 µM); MIC [30]: 1 µg/mL (≈ 2.77 µM); MIC [31]: 2 µg/mL; MIC [32]: 0.5 µg/mL; MIC [33]: 0.5 µg/mL; MIC [34]: 2 µg/mL; MIC [35]: 0.5 µg/mL; MIC [36]: 1 µg/mL; MIC [37]: 1 µg/mL; MIC [38]: 0.5 µg/mL (≈ 1.38 µM); MIC [39]: 1.5 µg/mL (≈ 4.15 µM)

From ChEMBL document CHEMBL1152457, “Antimicrobial drug resistance of Salmonella enterica serovar typhi in asia and molecular mechanism of reduced susceptibility to the fluoroquinolones” (2007)
